The source made the active and inactive calls. The calls are words filed in the database; no cut-off is given here.
Assays:
[1] = target: Carbonic anhydrase 9 (Homo sapiens, UniProt Q16790)
Description: Inhibition of human recombinant carbonic anhydrase 9 preincubated for 15 mins prior to testing by stopped-flow CO2 hydration assay

[2] = tested on: SK-OV-3; assay: (§1) Cytotoxicity against human SKOV3 spheroids expressing carbonic anhydrase 9/12 assessed as cell viability at 100 uM after 24 hrs by WST8 assay; format: functional
[3] = tested on: HT-29; assay: Cytotoxicity against human HT-29 spheroids expressing carbonic anhydrase 9/12 assessed as cell viability at 100 uM after 24 hrs by WST8 assay; format: functional
[4] = tested on: MDA-MB-231; assay: Cytotoxicity against human MDA-MB-231 spheroids expressing carbonic anhydrase 9/12 assessed as cell viability at 1 mM after 24 hrs by WST8 assay; format: functional
[5] = tested on: MDA-MB-231; assay: Cytotoxicity against human MDA-MB-231 spheroids expressing carbonic anhydrase 9/12 assessed as cell viability at 100 uM after 24 hrs by WST8 assay; format: functional
[6] = tested on: HT-29; assay: Cytotoxicity against human HT-29 spheroids expressing carbonic anhydrase 9/12 assessed as cell viability at 1 mM after 24 hrs by WST8 assay; format: functional
[7] = tested on: SK-OV-3; assay: (§2) Cytotoxicity against human SKOV3 spheroids expressing carbonic anhydrase 9/12 assessed as cell viability at 1 mM after 24 hrs by WST8 assay; format: functional
[8] = tested on: HT-29; assay: Cytotoxicity against human HT-29 cells expressing carbonic anhydrase 9/12 assessed as cell viability at 1 mM after 24 hrs under normoxic conditions by MTT assay; format: functional; details: HT-29, 24 h, read-out: Activity
[9] = tested on: MDA-MB-231; assay: Cytotoxicity against human MDA-MB-231 cells expressing carbonic anhydrase 9/12 assessed as cell viability at 1 mM after 24 hrs under normoxic conditions by MTT assay; format: functional; details: MDA-MB-231, 24 h, read-out: Activity
[10] = Cytotoxicity against human SKOV3 cells expressing carbonic anhydrase 9/12 assessed as cell viability at 10 uM after 24 hrs under normoxic conditions by MTT assay; format: functional; details: SK-OV-3, 24 h, read-out: Activity
[11] = Cytotoxicity against human SKOV3 cells expressing carbonic anhydrase 9/12 assessed as cell viability at 10 uM after 24 hrs under hypoxic conditions by MTT assay; format: functional; details: SK-OV-3, 24 h, read-out: Activity
[12] = tested on: MDA-MB-231; assay: Cytotoxicity against human MDA-MB-231 cells expressing carbonic anhydrase 9/12 assessed as cell viability at 100 uM after 24 hrs under normoxic conditions by MTT assay; format: functional; details: MDA-MB-231, 24 h, read-out: Activity
[13] = as §1; format: functional; details: SK-OV-3, 24 h, read-out: Activity
[14] = tested on: HT-29; assay: Cytotoxicity against human HT-29 cells expressing carbonic anhydrase 9/12 assessed as cell viability at 10 uM after 24 hrs under normoxic conditions by MTT assay; format: functional; details: HT-29, 24 h, read-out: Activity
[15] = Cytotoxicity against human SKOV3 cells expressing carbonic anhydrase 9/12 assessed as cell viability at 1 mM after 24 hrs under hypoxic conditions by MTT assay; format: functional; details: SK-OV-3, 24 h, read-out: Activity
[16] = tested on: HT-29; assay: Cytotoxicity against human HT-29 cells expressing carbonic anhydrase 9/12 assessed as cell viability at 100 uM after 24 hrs under hypoxic conditions by MTT assay; format: functional; details: HT-29, 24 h, read-out: Activity
[17] = tested on: HT-29; assay: Cytotoxicity against human HT-29 cells expressing carbonic anhydrase 9/12 assessed as cell viability at 100 uM after 24 hrs under normoxic conditions by MTT assay; format: functional; details: HT-29, 24 h, read-out: Activity
[18] = tested on: HT-29; assay: Cytotoxicity against human HT-29 cells expressing carbonic anhydrase 9/12 assessed as cell viability at 1 mM after 24 hrs under hypoxic conditions by MTT assay; format: functional; details: HT-29, 24 h, read-out: Activity
[19] = tested on: MDA-MB-231; assay: Cytotoxicity against human MDA-MB-231 cells expressing carbonic anhydrase 9/12 assessed as cell viability at 10 uM after 24 hrs under hypoxic conditions by MTT assay; format: functional; details: MDA-MB-231, 24 h, read-out: Activity
[20] = tested on: MDA-MB-231; assay: Cytotoxicity against human MDA-MB-231 cells expressing carbonic anhydrase 9/12 assessed as cell viability at 100 uM after 24 hrs under hypoxic conditions by MTT assay; format: functional; details: MDA-MB-231, 24 h, read-out: Activity
[21] = Cytotoxicity against human SKOV3 cells expressing carbonic anhydrase 9/12 assessed as cell viability at 100 uM after 24 hrs under hypoxic conditions by MTT assay; format: functional; details: SK-OV-3, 24 h, read-out: Activity
[22] = tested on: MDA-MB-231; assay: Cytotoxicity against human MDA-MB-231 cells expressing carbonic anhydrase 9/12 assessed as cell viability at 1 mM after 24 hrs under hypoxic conditions by MTT assay; format: functional; details: MDA-MB-231, 24 h, read-out: Activity
[23] = tested on: MDA-MB-231; assay: Cytotoxicity against human MDA-MB-231 cells expressing carbonic anhydrase 9/12 assessed as cell viability at 10 uM after 24 hrs under normoxic conditions by MTT assay; format: functional; details: MDA-MB-231, 24 h, read-out: Activity
[24] = Cytotoxicity against human SKOV3 cells expressing carbonic anhydrase 9/12 assessed as cell viability at 1 mM after 24 hrs under normoxic conditions by MTT assay; format: functional; details: SK-OV-3, 24 h, read-out: Activity
[25] = Cytotoxicity against human SKOV3 cells expressing carbonic anhydrase 9/12 assessed as cell viability at 100 uM after 24 hrs under normoxic conditions by MTT assay; format: functional; details: SK-OV-3, 24 h, read-out: Activity
[26] = tested on: HT-29; assay: Cytotoxicity against human HT-29 cells expressing carbonic anhydrase 9/12 assessed as cell viability at 10 uM after 24 hrs under hypoxic conditions by MTT assay; format: functional; details: HT-29, 24 h, read-out: Activity
[27] = as §2; format: functional; details: SK-OV-3, 24 h, read-out: Activity
[28] = HT-29, 24 h, read-out: Activity
[29] = MDA-MB-231, 24 h, read-out: Activity

## NS(=O)(=O)c1ccc(NC(=O)CCC(=O)NCCOCCOCCOCCOCCOCCOCCOCCOCCOCCOCCOCCOCCOCCOCCOCCOCCOCCOCCOCCOCCOCCOCCOCCOCCOCCOCCOCCOCCOCCOCCOCCOCCOCCOCCOCCOCCOCCOCCOCCOCCOCCOCCOCCOCCOCCNC(=O)CCC(=O)Nc2ccc(S(N)(=O)=O)cc2)cc1
[1]
  Ki: 4.8 nM

## NS(=O)(=O)c1nnc(NC(=O)CCC(=O)NCCOCCOCCNC(=O)CCC(=O)Nc2nnc(S(N)(=O)=O)s2)s1
[1]
  Ki: 9.6 nM

## NS(=O)(=O)c1nnc(NS(=O)(=O)c2ccc(NC(=O)CCC(=O)NCCOCCOCCNC(=O)CCC(=O)Nc3ccc(S(=O)(=O)Nc4nnc(S(N)(=O)=O)s4)cc3)cc2)s1
[1]
  Ki: 24.1 nM
[2]
  Activity: Active
[3]
  Activity: Active
[4]
  Activity: inactive
[5]
  Activity: inactive
[6]
  Activity: Active
[7]
  Activity: Active

## NS(=O)(=O)c1nnc(NC(=O)CCC(=O)NCCOCCOCCOCCOCCOCCOCCOCCOCCOCCOCCOCCOCCOCCOCCOCCOCCOCCOCCOCCOCCOCCOCCOCCOCCOCCOCCOCCOCCOCCOCCOCCOCCOCCOCCOCCOCCOCCOCCOCCOCCOCCOCCOCCOCCOCCNC(=O)CCC(=O)Nc2nnc(S(N)(=O)=O)s2)s1
[8]
  viability at 1000 µM: 30%
[9]
  viability at 1000 µM: 30%
[10]
  viability at 10 µM: 60%
[11]
  viability at 10 µM: 60%
[1]
  Ki: 2.5 nM
[12]
  viability at 100 µM: 50%
[13]
  viability at 100 µM: 80%
[14]
  viability at 10 µM: 60%
[15]
  viability at 1000 µM: 30%
[16]
  viability at 100 µM: 50%
[3]; [28]
  viability at 100 µM: 70%
[4]; [29]
  viability at 1000 µM: 80%
[17]
  viability at 100 µM: 50%
[18]
  viability at 1000 µM: 30%
[19]
  viability at 10 µM: 60%
[20]
  viability at 100 µM: 50%
[21]
  viability at 100 µM: 50%
[22]
  viability at 1000 µM: 30%
[5]; [29]
  viability at 100 µM: 90%
[6]; [28]
  viability at 1000 µM: 60%
[23]
  viability at 10 µM: 60%
[24]
  viability at 1000 µM: 30%
[25]
  viability at 100 µM: 50%
[26]
  viability at 10 µM: 60%
[27]
  viability at 1000 µM: 50%

## NS(=O)(=O)c1nnc(NS(=O)(=O)c2ccc(NC(=O)CCC(=O)O)cc2)s1
[2]
  Activity: Active
[3]
  Activity: Active
[4]
  Activity: inactive
[5]
  Activity: inactive
[6]
  Activity: Active
[7]
  Activity: Active

## NS(=O)(=O)c1nnc(NC(=O)CCC(=O)O)s1
[2]
  Activity: Active
[3]
  Activity: Active
[4]
  Activity: inactive
[5]
  Activity: inactive
[6]
  Activity: Active
[7]
  Activity: Active

## NS(=O)(=O)c1nnc(NS(=O)(=O)c2ccc(NC(=O)CCC(=O)NCCOCCOCCOCCOCCOCCOCCOCCOCCOCCOCCOCCOCCOCCOCCOCCOCCOCCOCCOCCOCCOCCOCCOCCOCCOCCOCCOCCOCCOCCOCCOCCOCCOCCOCCOCCOCCOCCOCCOCCOCCOCCOCCOCCOCCOCCNC(=O)CCC(=O)Nc3ccc(S(=O)(=O)Nc4nnc(S(N)(=O)=O)s4)cc3)cc2)s1
[1]
  Ki: 1.7 nM

## NS(=O)(=O)c1ccc(NC(=O)CCC(=O)NCCOCCOCCNC(=O)CCC(=O)Nc2ccc(S(N)(=O)=O)cc2)cc1
[1]
  Ki: 2.9 nM
[2]
  Activity: Active
[3]
  Activity: Active
[4]
  Activity: inactive
[5]
  Activity: inactive
[6]
  Activity: Active
[7]
  Activity: Active

— ChEMBL document CHEMBL3822401, “PEGylated Bis-Sulfonamide Carbonic Anhydrase Inhibitors Can Efficiently Control the Growth of Several Carbonic Anhydrase IX-Expressing Carcinomas” (J Med Chem, 2016)
